In article PMC11680164 (Viruses, 2024):
“Also recorded” adds a separate entry of the source.

Test system: SARS-CoV-2 P.1 lineage (gamma variant)
Set-up: species or system K18-hACE2 mice
Settings: in vivo

Question: For COC(=O)N[C@H](C(=O)N1CCC[C@H]1c1nc(-c2ccc(-c3ccc(-c4c[nH]c([C@@H]5CCCN5C(=O)[C@@H](NC(=O)OC)C(C)C)n4)cc3)cc2)c[nH]1)C(C)C [daclatasvir], which mouse survival is on record?
Answer: Its mouse survival is “increased mouse survival; also recorded: did not significantly affect”.

Question: What about the “LDH levels in bronchoalveolar lavage (BAL) fluid (cell death, lung necrosis)” value (mouse) of the same molecule?
Answer: The value was “decreased levels”.

Question: And the “SARS-CoV-2-induced increase in IL-6” value (mouse)?
Answer: Its value is “prevented”.

Question: What about the “SARS-CoV-2-induced increase in KC” value (mouse) of the same molecule?
Answer: Its value is “prevented”.

Question: And the “SARS-CoV-2-induced increase in TNF-α” value (mouse)?
Answer: The value was “prevented”.

Question: And the “cellular infiltration in BAL fluid” value (mouse)?
Answer: Its value is “reduced cellular infiltration”.

Question: And the “double-stranded RNA (dsRNA) levels in the lungs” value (mouse)?
Answer: Its value is “lower levels”.

Question: And the “loss of body weight” value (mouse)?
Answer: The value was “reduced”.

Question: What about the “lung parenchyma affected by alveolar collapse” value (mouse) of the same molecule?
Answer: Its value is about 10%.

Question: What about the “reduction of SARS-CoV-2 RNA levels in the lungs” value (mouse) of the same molecule?
Answer: Its value is “up to 3 log10”.

Question: And the “reduction of SARS-CoV-2 titers in the lungs” value (mouse)?
Answer: The value was “up to 3 log10”.

Question: And the “virus-induced score of clinical severity” value (mouse)?
Answer: The value was “reduced”.
